Consider 21 compounds from patent US7741488B2, “Tetrahydropyridothiophenes as antiproliferative agents for the treatment of cancer” (4SC AG, priority 2005, dated 2010).

As a reminder, the IC50 is the concentration that inhibits the measured activity by half. A low value points to greater potency.

The structures appear in SMILES notation. A value given as a limit tells only on which side of the number the result lay.

In assay [1] the test system is RKOp27 colon adenocarcinoma cells arrested by expression of ectopic p27Kip1. As to the kind of experiment: Alamar Blue cell viability assay on RKO p27 cells arrested by Ponasterone A induced p27Kip1 (cell cycle specific mode of action). The assay is classed as cell-based. To be noted: Homo sapiens, 72 hours, cells arrested by p27Kip1 induced with 10 μM Ponasterone A. The protocol: To determine the cell cycle specific mode of action, subclones of RKO colon adenocarcinoma cells (RKOp27 or RKOp21 as described by Schmidt et al. in Oncogene 19, 2423-2429; 2000) are seeded into 96 well flat bottom plates at a density of 16000 cells per well in a volume of 50 μl per well in DMEM growth medium with 10% FCS containing 10 μM Ponasterone A. 24 hours after seeding the 50 μl each of the compound dilutions in DMEM medium are added into each well of the 96 Well plate. Each compound dilution is tested as quadruplicates. Wells containing untreated control cells are filled with 50 μl DMEM medium containing 1% DMSO. The cells are then incubated with the substances for 72 hours at 37° C. in a humidified atmosphere containing 5% carbon dioxide. To determine the viability of the cells, 10 μl of an Alamar Blue solution (Biosource) are added and the fluorescence was measured at an extinction of 544 nm and an emission of 590 nm. For the calculation of the cell viability the emission value from untreated cells is set as 100% viability and the emission rates of treated cells are set in relation to the values of untreated cells. Viabilities are expressed as % values. Viability is compared of proliferating cells grown in the absence of the inducer Ponasterone A, versus viability of cells arrested by the expression of ectopic p27Kip1 induced by Ponasterone A.
(In general: Resazurin is reduced to fluorescent resorufin, in cell work by metabolically active cells.)

Assay [2] has as its system RKO (RKOp27) human colon adenocarcinoma cells. Put plainly: Alamar Blue cell viability assay, anti-proliferative/cytotoxic activity on proliferating (uninduced) RKO p27 cells. Conditions: RKOp27, 72 h, proliferating cells without inducer Ponasterone A. The format is cell-based. The procedure: The anti-proliferative/cytotoxic activity of the compounds described herein, can be tested on subclones of RKO (RKOp27) human colon adenocarcinoma cells (Schmidt et al., Oncogene 19, 2423-2429; 2000) using the Alamar Blue cell viability assay (described in O'Brien et al. Eur J Biochem 267, 5421-5426, 2000). The compounds are dissolved as 20 mM solutions in dimethylsulfoxide (DMSO) and subsequently diluted in semi-logarithmic steps. DMSO dilutions are further diluted 1:100 into Dulbecco's modified Eagle's medium (DMEM) containing 10% fetal calf serum to a final concentration twice as much as the final concentration in the test. RKO subclones are seeded into 96 well flat bottom plates at a density of 4000 cells per well in a volume of 50 μl per well. 24 hours after seeding the 50 μl each of the compound dilutions in DMEM medium are added into each well of the 96 Well plate. Each compound dilution is tested as quadruplicates. Wells containing untreated control cells are filled with 50 μl DMEM medium containing 1% DMSO. The cells are then incubated with the substances for 72 hours at 37° C. in a humidified atmosphere containing 5% carbon dioxide. To determine the viability of the cells, 10 μl of an Alamar Blue solution (Biosource) are added and the fluorescence is measured at an extinction of 544 nm and an emission of 590 nm. For the calculation of the cell viability the emission value from untreated cells is set as 100% viability and the emission rates of treated cells are set in relation to the values of untreated cells. Viabilities are expressed as % values.
The corresponding IC50 values of the compounds for anti-proliferative/cytotoxic activity are determined from the concentration-effect curves.
Representative IC50 values for anti-proliferation/cytotoxicity determined in the mentioned assay follow from the following table A, in which the numbers of the compound correspond to the numbers of the examples.

In the case of `COc1ccccc1CCC(=O)Nc1sc2c(c1C#N)CCN(C(=O)OCCc1ccccn1)C2` [Example 25, 3-Cyano-2-[3-(2-methoxy-phenyl)-propanoylamino]-4,7-dihydro-5H-thieno[2,3-c]pyridine-6-carboxylic acid 2-pyridin-2-yl-ethyl ester], the figures for the IC50 in assay [1] and in assay [2] were more than 100 µM and not above 0.3 µM, respectively.

`COc1ccccc1CCC(=O)Nc1sc2c(c1C#N)CCN(C(=O)OCc1ccccn1)C2` [Example 26, 3-Cyano-2-[3-(2-methoxy-phenyl)-propanoylamino]-4,7-dihydro-5H-thieno[2,3-c]pyridine-6-carboxylic acid pyridin-2-ylmethyl ester]: the 50% inhibitory concentration (IC50) in assay [1] was not below 40 µM; in assay [2] it was not above 0.3 µM.

For `COc1ccccc1CCC(=O)Nc1sc2c(c1C#N)CCN(C(=O)OCc1ccncc1)C2` [Example 28, 3-Cyano-2-[3-(2-methoxy-phenyl)-propanoylamino]-4,7-dihydro-5H-thieno[2,3-c]pyridine-6-carboxylic acid pyridin-4-ylmethyl ester], the IC50 is more than 100 µM in assay [1] and not above 0.3 µM in assay [2].

For `COc1cccc(CCC(=O)Nc2sc3c(c2C#N)CCN(C(=O)OCc2ccccn2)C3)c1` [Example 29, 3-Cyano-2-[3-(3-methoxy-phenyl)-propanoylamino]-4,7-dihydro-5H-thieno[2,3-c]pyridine-6-carboxylic acid pyridin-2-ylmethyl ester], the IC50 is more than 100 µM in assay [1] and not above 0.3 µM in assay [2].

For the compound `COc1ccccc1CCC(=O)Nc1sc2c(c1C#N)CCN(C(=O)OCC1COC(C)(C)O1)C2` (stereo not drawn) [Example 30, 3-Cyano-2-[3-(2-methoxy-phenyl)-propanoylamino]-4,7-dihydro-5H-thieno[2,3-c]pyridine-6-carboxylic acid 2,2-dimethyl-[1,3]dioxolan-4-ylmethyl ester], the IC50 was more than 100 µM in assay [1] and not above 0.3 µM in assay [2].

As for `COc1ccccc1CCC(=O)Nc1sc2c(c1C#N)CCN(C(=O)OCC(O)CO)C2` (stereo not drawn) [Example 32, 3-Cyano-2-[3-(2-methoxy-phenyl)-propanoylamino]-4,7-dihydro-5H-thieno[2,3-c]pyridine-6-carboxylic acid 2,3-dihydroxy-propyl ester], the half-inhibitory concentration (IC50) was more than 100 µM in assay [1] and not above 0.3 µM in assay [2].

For `CCOc1ccccc1CCC(=O)Nc1sc2c(c1C#N)CCN(C(=O)OCC(O)CO)C2` (stereo not drawn) [Example 33, 3-Cyano-2-[3-(2-ethoxy-phenyl)-propanoylamino]-4,7-dihydro-5H-thieno[2,3-c]pyridine-6-carboxylic acid 2,3-dihydroxy-propyl ester], the half-maximal inhibitory concentration (IC50) in assay [1] was more than 100 µM; in assay [2], not above 0.3 µM.

As to `COc1ccccc1CCC(=O)Nc1sc2c(c1C#N)CCN(C(=O)OCCO)C2` [Example 34, 3-Cyano-2-[3-(2-methoxy-phenyl)-propanoylamino]-4,7-dihydro-5H-thieno[2,3-c]pyridine-6-carboxylic acid 2-hydroxy-ethyl ester], the 50% inhibitory concentration (IC50) in assay [1] was more than 100 µM; in assay [2], not above 0.3 µM.

Take `CCOc1ccccc1CCC(=O)Nc1sc2c(c1C#N)CCN(C(=O)OCCO)C2` [Example 35, 3-Cyano-2-[3-(2-ethoxy-phenyl)-propanoylamino]-4,7-dihydro-5H-thieno[2,3-c]pyridine-6-carboxylic acid 2-hydroxy-ethyl ester]: the IC50 in assay [1] was more than 100 µM; in assay [2], not above 0.3 µM.

As for `COc1cccc(CCC(=O)Nc2sc3c(c2C#N)CCN(C(=O)OCc2cccnc2)C3)c1` [Example 36, 3-Cyano-2-[3-(3-methoxy-phenyl)-propanoylamino]-4,7-dihydro-5H-thieno[2,3-c]pyridine-6-carboxylic acid pyridin-3-ylmethyl ester], the half-maximal inhibitory concentration (IC50) in assay [1] is more than 100 µM; in assay [2] it was not above 0.3 µM.

As for `COc1cccc(CCC(=O)Nc2sc3c(c2C#N)CCN(C(=O)OCc2ccncc2)C3)c1` [Example 37, 3-Cyano-2-[3-(3-methoxy-phenyl)-propanoylamino]-4,7-dihydro-5H-thieno[2,3-c]pyridine-6-carboxylic acid pyridin-4-ylmethyl ester], the half-inhibitory concentration (IC50) in assay [1] was more than 100 µM; in assay [2], not above 0.3 µM.

Turning to `COc1cccc(CCC(=O)Nc2sc3c(c2C#N)CCN(C(=O)OCCc2ccccn2)C3)c1` [Example 38, 3-Cyano-2-[3-(3-methoxy-phenyl)-propanoylamino]-4,7-dihydro-5H-thieno[2,3-c]pyridine-6-carboxylic acid 2-pyridin-2-yl-ethyl ester], the results for the half-inhibitory concentration (IC50) in assay [1] and in assay [2] were more than 100 µM and 0.3 to 2 µM, respectively.

As for `CCOC(=O)N1CCc2c(sc(NC(=O)CCc3ccccc3OC(F)(F)F)c2C#N)C1` [Example 39, 3-Cyano-2-[3-(2-trifluoromethoxy-phenyl)-propanoylamino]-4,7-dihydro-5H-thieno[2,3-c]pyridine-6-carboxylic acid ethyl ester], the results for the IC50 in assay [1] and in assay [2] were more than 100 µM and not above 0.3 µM, respectively.

With `CCOc1ccccc1CCC(=O)Nc1sc2c(c1C#N)CCN(C(=O)OCCOC)C2` [Example 40, 3-Cyano-2-[3-(2-ethoxy-phenyl)-propanoylamino]-4,7-dihydro-5H-thieno[2,3-c]pyridine-6-carboxylic acid 2-methoxy-ethyl ester], the values for the half-maximal inhibitory concentration (IC50) in assay [1] and in assay [2] were more than 100 µM and not above 0.3 µM, respectively.

Turning to `CCOc1ccccc1CCC(=O)Nc1sc2c(c1C#N)CCN(C(=O)OCc1ccccn1)C2` [Example 41, 3-Cyano-2-[3-(2-ethoxy-phenyl)-propanoylamino]-4,7-dihydro-5H-thieno[2,3-c]pyridine-6-carboxylic acid pyridin-2-ylmethyl ester], the 50% inhibitory concentration (IC50) in assay [1] is more than 100 µM; in assay [2], not above 0.3 µM.

For `CCOc1ccccc1CCC(=O)Nc1sc2c(c1C#N)CCN(C(=O)OCc1cccnc1)C2` [Example 42, 3-Cyano-2-[3-(2-ethoxy-phenyl)-propanoylamino]-4,7-dihydro-5H-thieno[2,3-c]pyridine-6-carboxylic acid pyridin-3-ylmethyl ester], the IC50 is more than 100 µM in assay [1] and not above 0.3 µM in assay [2].

Consider `CCOc1ccccc1CCC(=O)Nc1sc2c(c1C#N)CCN(C(=O)OCc1ccncc1)C2` [Example 43, 3-Cyano-2-[3-(2-ethoxy-phenyl)-propanoylamino]-4,7-dihydro-5H-thieno[2,3-c]pyridine-6-carboxylic acid pyridin-4-ylmethyl ester], for which the IC50 was not below 40 µM in assay [1] and not above 0.3 µM in assay [2].

Take `CCOc1ccccc1CCC(=O)Nc1sc2c(c1C#N)CCN(C(=O)OCCc1ccccn1)C2` [Example 44, 3-Cyano-2-[3-(2-ethoxy-phenyl)-propanoylamino]-4,7-dihydro-5H-thieno[2,3-c]pyridine-6-carboxylic acid 2-pyridin-2-yl-ethyl ester]: the figures for the half-inhibitory concentration (IC50) in assay [1] and in assay [2] were more than 100 µM and not above 0.3 µM, respectively.

Regarding `COCCOC(=O)N1CCc2c(sc(NC(=O)CCc3cccc(OC)c3)c2C#N)C1` [Example 45, 3-Cyano-2-[3-(3-methoxy-phenyl)-propanoylamino]-4,7-dihydro-5H-thieno[2,3-c]pyridine-6-carboxylic acid 2-methoxy-ethyl ester], the results for the IC50 in assay [1] and in assay [2] were more than 100 µM and not above 0.3 µM, respectively.

`COc1ccc(OC)c(CCC(=O)Nc2sc3c(c2C#N)CCN(C(=O)OCCO)C3)c1` [Example 46, 3-Cyano-2-[3-(2,5-dimethoxy-phenyl)-propanoylamino]-4,7-dihydro-5H-thieno[2,3-c]pyridine-6-carboxylic acid 2-hydroxy-ethyl ester]: the IC50 in assay [1] was more than 100 µM; in assay [2], 0.3 to 2 µM.

For `COc1ccc(C)cc1CCC(=O)Nc1sc2c(c1C#N)CCN(C(=O)OCCc1ccccn1)C2` [Example 48, 3-Cyano-2-[3-(2-methoxy-5-methyl-phenyl)-propanoylamino]-4,7-dihydro-5H-thieno[2,3-c]pyridine-6-carboxylic acid 2-pyridin-2-yl-ethyl ester], the results for the concentration for half-maximal inhibition (IC50) in assay [1] and in assay [2] were more than 100 µM and 0.3 to 2 µM, respectively.
